Measured values as given in US12102631B2, “Quinolylnitrones for the treatment and prevention of a cerebral stroke or ischaemia” (ISQUAEMIA BIOTECH, S.L., priority 2018, dated 2024).

How the values were obtained:
[1] = Quantitative nitrite assay for NO release (Griess); format: biochemical; conditions: 100 μM, L-cysteine, pH 7.4, 60 min 37° C.
Method: Quantitative nitrite assays for NO release. A solution of nitrone 23 (final concentration 100 μM) (20 μL), dissolved in DMSO, was added to 2 mL of 50 mM phosphate buffer (pH=7.4) containing the appropriate amount of thiol cofactor 1 mM (L-cysteine). After 60 min at 37° C., 1 mL of the reaction mixture was treated with 250 μL of the Griess reagent (4 g sulfanilamide, 0.2 g N-naphthyl-ethyldiamine dihydrochloride, 10 mL of 85% phosphoric acid in distilled water, final volume 100 mL). After the mixture stood for 10 min at rt, absorbance was recorded at 540 nm. Sodium nitroprusside (SNP) was used as standard reference compound (100 μM). The yield in nitrite (NO2^− release) for nitrone 23, as function of L-cysteine (mM concentration) is given in Table 1, expressed as % NO2^− (mol/mol).
QNs were tested in vitro for their ability to release NO by the action of a thiol co-factor. NO release with simultaneous production of cyanide occurs by action of reducing agents like thiols. L-cysteine was used as a co-factor in this in vitro biological test. […] The screened compounds (final concentration 100 μM) was tested for its ability to release NO when dissolved in a phosphate buffer containing L-cysteine (pH 7.4). Air was oxidizing the initially formed NO, transforming it to nitrites, which were detected by the Griess reaction. Virtually, no formation of NO2^− was detectable in the absence of L-cysteine for the nitrones tested.

[2] = tested on: global cerebral ischemia in Wistar rats; experiment: Neuronal apoptosis by TUNEL assay after global cerebral ischemia; format: in vivo; conditions: R5 d
Method: (§1) Animal model of global cerebral ischemia, experimental design and administration of nitrones. Transient forebrain ischemia was induced in adult male Wistar rats (10-12 weeks, Charles River) by the standard four-vessel occlusion model (4V0) previously described.^44,56 Briefly, both vertebral arteries were irreversibly occluded by electrocoagulation under anesthesia with a mixture of atropine, ketamine and diazepam (0.25, 62.5, and 5 mg/kg, respectively) delivered by intraperitoneal injection. After 24 h, ischemia was induced by carotid occlusion with atraumatic clips for 15 min and then clips were removed from the carotid arteries to allow reperfusion. Body temperature of 37° C. was maintained. The animals were studied after 5 days of reperfusion (R5 d). We performed a power analysis (http://www.biomath.info/power/ttest.htm) to determine the sample size. We chose the significant level at 0.05, the power set at 0.8 (80%), and a ratio of control/treated group of 2:1, and the sample size obtained was 10 subjects per control group and <6 subjects per treated group. A total of 26 ischemic animals were used for the study of nitrone 23 efficacy. Here 6 animals were treated with 1.5 mg/kg of nitrone 23, or 40 mg/kg of compound 2, and 14 animals were included in control (vehicle) group, two of which died after 2 days. The treatments were performed with allocated concealment, assigning a random order to each vehicle or treated animal by computer-generated randomization program. Ischemic animals were treated with nitrone 23 diluted in 10% ethanol in saline as vehicle by intraperitoneal injection when the carotid arteries were unclamped for reperfusion. […]
TUNEL assay. Apoptotic neurons within brain sections were detected using the Terminal deoxynucleotidyl transferase-mediated dUTP Nick-End Labeling (TUNEL) assay (Promega). […]
The hippocampal CA1 subfield and cerebral and lateral cortex fields from a given section were analyzed with fluorescence microscopy (40× objective) to count the number of apoptotic nuclei (green). […]

[3] = tested on: global cerebral ischemia in Wistar rats; experiment: Neuronal death by Fluoro-Jade B staining after global cerebral ischemia; format: in vivo; conditions: R5 d
Method: as §1, with “program.” for “program. Ischemic animals were treated with nitrone 23 diluted in 10% ethanol in saline as vehicle by intraperitoneal injection when the carotid arteries were unclamped for reperfusion.”
Neuronal death evaluation. Neuronal death was evaluated by Fluoro-Jade-B staining. Brain cryosections (10 μm thick) from ischemic animals that underwent reperfusion for 5 days were used after fixation to detect neuronal death by Fluoro-Jade-B staining,^44 and visualized by fluorescence microscopy. Labeled (dead) neuronal cells (in green) were counted as in TUNEL assay (see below). Data from different animals of each experimental group were independently analyzed by two observers, and treatment information was blindly performed throughout the study. […]

[4] = tested on: global cerebral ischemia in Wistar rats; experiment: Neurological deficit score after transient global cerebral ischemia (four-vessel occlusion); format: in vivo; conditions: 5 days of reperfusion, vehicle 3.3±0.21
Method: as §1, with “group.” for “group. A total of 26 ischemic animals were used for the study of nitrone 23 efficacy. Here 6 animals were treated with 1.5 mg/kg of nitrone 23, or 40 mg/kg of compound 2, and 14 animals were included in control (vehicle) group, two of which died after 2 days. The treatments were performed with allocated concealment, assigning a random order to each vehicle or treated animal by computer-generated randomization program. Ischemic animals were treated with nitrone 23 diluted in 10% ethanol in saline as vehicle by intraperitoneal injection when the carotid arteries were unclamped for reperfusion.”
Animals were subjected to 15 min of cerebral ischemia, treated with vehicle or QN 23 at the onset of reperfusion period, and studied after 5 days of reperfusion (R5 d). We evaluated the neurological deficit score (NDS) to assess the effect of QN 23 following global ischemia-reperfusion in R5 d animals. […]

[5] = 1.5 mg/kg i.p., compared with vehicle

CC(C)(C)/[N+]([O-])=C/c1ccc(S(=O)(=O)O)cc1S(=O)(=O)O [Compound 2, sodium (Z)-4-((tert-butyloxidoazanylidene)methyl)benzene-1,3-disulfonate, reference compound]
NO2− (%) (mol/mol) [1]: 1 % (mol/mol)
effect on neuronal apoptosis (in words) ([2]; 40 mg/kg): induced a decrease of neuronal apoptosis, although it was not significant
effect on neuronal death, CA1 and cortical regions (in words) ([3]; 40 mg/kg): did not produce a significant effect
neurological deficit score (NDS) ([4]; 40 mg/kg): 2.5±0.28

CC(C)(C)/[N+]([O-])=C/c1cc2ccccc2nc1Cl [Compound 18, (Z)—N-t-Butyl-1-(2-chloroquinolin-3-yl)methanimine oxide]
NO2− (%) (mol/mol) [1]: 7.5 % (mol/mol)

COc1ccc2nc(Cl)c(/C=[N+](/C)[O-])cc2c1 [Compound 22, (Z)-1-(2-Chloro-6-methoxyquinolin-3-yl)-N-methylmethanimine oxide]
NO2− (%) (mol/mol) [1]: 11 % (mol/mol)

COc1ccc2nc(Cl)c(/C=[N+](\[O-])C(C)(C)C)cc2c1 [Compound 23, (Z)—N-tert-Butyl-1-(2-chloro-6-methoxyquinolin-3-yl)methanimine oxide]
NO2− (%) (mol/mol) [1]: 3 % (mol/mol)
decrease of neuronal apoptosis, CA1 region ([2]; 1.5 mg/kg): 39%
decrease of neuronal apoptosis, cerebral cortex ([2]; 1.5 mg/kg): 84%
decrease of neuronal death, CA1 region [3, 5]: 33%
decrease of neuronal death, cortical region [3, 5]: 90%
neurological deficit score (NDS) ([4]; 1.5 mg/kg i.p. at onset of reperfusion): 2.0±0.44

COc1ccc2nc(Cl)c(/C=[N+](\[O-])Cc3ccccc3)cc2c1 [Compound 24, (Z)—N-Benzyl-1-(2-chloro-6-methoxyquinolin-3-yl)methanimine oxide]
NO2− (%) (mol/mol) [1]: 12.5 % (mol/mol)

COc1ccc2nc(Cl)c(C=O)cc2c1 [Compound 32, 2-chloro-6-methoxyquinoline-3-carbaldehyde, reference compound]
NO2− (%) (mol/mol) [1]: 2.5 % (mol/mol)
